Test results published in US7842324B2 (Senomyx, Inc., priority 2005, dated 2010).
Where two headings read alike, the source gives them in different places.

Molecular target: T1, hT1R2/hT1R3 sweet receptor expressed in HEK293 cell line (Homo sapiens, UniProt Q7RTX0+Q8TE23)
T1 construct: expressed in transfected cells; host or cells: HEK293 derivative stably expressing Gα15 and hT1R2/hT1R3, clone S-9
T1 sequence (Q8TE23 20-839): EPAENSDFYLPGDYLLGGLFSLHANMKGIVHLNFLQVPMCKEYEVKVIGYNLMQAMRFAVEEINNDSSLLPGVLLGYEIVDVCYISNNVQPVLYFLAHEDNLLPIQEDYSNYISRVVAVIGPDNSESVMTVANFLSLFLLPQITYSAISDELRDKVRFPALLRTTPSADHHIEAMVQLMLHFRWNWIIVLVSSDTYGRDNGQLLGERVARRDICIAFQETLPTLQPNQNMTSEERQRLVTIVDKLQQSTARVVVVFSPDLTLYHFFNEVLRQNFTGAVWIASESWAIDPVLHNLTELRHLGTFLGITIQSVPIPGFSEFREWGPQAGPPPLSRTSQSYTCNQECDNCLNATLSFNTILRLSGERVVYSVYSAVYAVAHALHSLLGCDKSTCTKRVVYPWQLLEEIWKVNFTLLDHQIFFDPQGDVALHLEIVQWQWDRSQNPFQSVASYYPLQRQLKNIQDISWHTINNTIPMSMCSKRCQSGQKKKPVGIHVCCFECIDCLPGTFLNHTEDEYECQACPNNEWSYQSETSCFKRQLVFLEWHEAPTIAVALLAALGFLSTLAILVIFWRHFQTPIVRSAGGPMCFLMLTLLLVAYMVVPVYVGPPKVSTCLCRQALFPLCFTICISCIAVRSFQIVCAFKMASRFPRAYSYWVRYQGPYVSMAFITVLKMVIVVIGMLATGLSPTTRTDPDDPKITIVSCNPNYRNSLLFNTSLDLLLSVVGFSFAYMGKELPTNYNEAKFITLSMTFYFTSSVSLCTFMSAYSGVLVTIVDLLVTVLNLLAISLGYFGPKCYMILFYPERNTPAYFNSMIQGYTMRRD
T1 sequence (Q7RTX0 21-852): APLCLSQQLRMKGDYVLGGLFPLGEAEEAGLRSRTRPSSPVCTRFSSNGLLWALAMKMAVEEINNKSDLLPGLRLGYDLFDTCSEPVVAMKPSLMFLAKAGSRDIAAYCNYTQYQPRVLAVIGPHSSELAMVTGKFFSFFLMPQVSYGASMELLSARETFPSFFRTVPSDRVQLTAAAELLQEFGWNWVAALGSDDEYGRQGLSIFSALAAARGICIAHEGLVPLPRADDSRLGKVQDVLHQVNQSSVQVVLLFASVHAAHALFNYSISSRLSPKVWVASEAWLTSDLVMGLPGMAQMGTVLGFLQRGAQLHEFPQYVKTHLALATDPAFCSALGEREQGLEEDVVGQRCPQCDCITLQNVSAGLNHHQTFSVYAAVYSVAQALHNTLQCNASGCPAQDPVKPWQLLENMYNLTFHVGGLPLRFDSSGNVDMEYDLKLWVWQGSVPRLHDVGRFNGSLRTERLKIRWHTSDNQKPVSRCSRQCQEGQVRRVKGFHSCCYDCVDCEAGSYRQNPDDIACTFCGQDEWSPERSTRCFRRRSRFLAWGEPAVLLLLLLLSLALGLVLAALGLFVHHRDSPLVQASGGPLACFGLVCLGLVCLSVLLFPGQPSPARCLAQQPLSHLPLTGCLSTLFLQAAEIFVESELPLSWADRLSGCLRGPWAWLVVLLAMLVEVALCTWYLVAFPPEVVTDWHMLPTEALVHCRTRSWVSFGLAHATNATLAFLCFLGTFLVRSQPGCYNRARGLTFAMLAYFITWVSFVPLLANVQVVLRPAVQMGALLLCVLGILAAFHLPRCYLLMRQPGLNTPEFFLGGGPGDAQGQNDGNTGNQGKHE
Experiment: In vitro hT1R2/hT1R3-HEK293 taste receptor activation assay (FLIPR)
Assay type: cell-based
Protocol: An HEK293 cell line derivative (Chandrashekar et al., Cell (2000) 100:703-711) that stably expresses Gα15 and hT1R2/hT1R3 (Li et al., Proc Natl Acad Sci USA (2002) 99:4692-4696), see also PCT Publication No. WO 03/001876 A2) was used to identify compounds with sweet taste enhancing properties.
Compounds covered in this document were initially selected based on their activity on the hT1R2/hT1R3-HEK293-Gα15 cell line (Li et al. vide supra). Activity was determined using an automated fluorometric imaging assay on a FLIPR instrument ([…], Molecular Devices, Sunnyvale, Calif.) (designated FLIPR assay). Cells from one clone (designated S-9 cells) were seeded into 384-well plates (at approximately 50,000 cells per well) in a medium containing DMEM Low Glucose (Invitrogen, Carlsbad, Calif.), 10% dialyzed fetal bovine serum (Invitrogen, Carlsbad, Calif.), 100 Units/ml Penicillin G, and 100 μg/ml Streptomycin (Invitrogen, Carlsbad, Calif.) (Li et al. vide supra) see also PCT Publication No. WO 03/001876 A2). S-9 cells were grown for 24 hours at 37° C. S-9 cells were then loaded with the calcium dye Fluo-3AM (Molecular Probes, Eugene, Oreg.), 4 μM in a phosphate buffered saline (D-PBS) (Invitrogen, Carlsbad, Calif.), for 1 hour at room temperature. After replacement with 25 μl D-PBS, stimulation was performed in the FLIPR instrument and at room temperature by the addition of 25 μl D-PBS supplemented with different stimuli at concentrations corresponding to twice the desired final level. Receptor activity was quantified by determining the maximal fluorescence increases (using a 480 nm excitation and 535 nm emission) after normalization to basal fluorescence intensity measured before stimulation.
For dose-responses analysis, stimuli were presented in duplicates at 10 different concentrations ranging from 60 nM to 30 μM. Activities were normalized to the response obtained with 400 mM D-fructose, a concentration that elicits maximum receptor response. EC50s were determined using a non-linear regression algorithm (using a Senomyx, Inc. software), where the Hill slope, bottom asymptotes and top asymptotes were allow to vary. Identical results were obtained when analyzing the dose-response data using commercially available software for non-linear regression analysis such as GraphPad PRISM (San Diego, Calif.).

[1] = read-out: EC50 for activation of a hT1R2/hT1R3 sweet receptor expressed in HEK293 cell line

CC(C)CNC(=O)C(C)(C)c1ccc(-c2cccc([N+](=O)[O-])c2)cc1 [Compound 8, N-isobutyl-2-methyl-2-(3′-nitrobiphenyl-4-yl)propanamide]
EC50 [1]: 400 nM

COC(=O)c1cccc(-c2ccc(C(C)(C)C(=O)NCC(C)C)cc2)c1 [Compound 10, Methyl 4′-(1-(isobutylamino)-2-methyl-1-oxopropan-2-yl)biphenyl-3-carboxylate]
EC50 [1]: 900 nM

COC(C)CNC(=O)C(C)(C)c1ccc(-c2cncc(C#N)n2)cc1 (stereo not shown) [Compound 45, 2-(4-(6-cyanopyrazin-2-yl)phenyl)-N-(2-methoxypropyl)-2-methylpropanamide]
EC50 [1]: 920 nM

COCc1cccc(-c2ccc(C(C)(C)C(=O)NCC(C)C)cn2)c1 [Compound A31]
EC50 (Table A, read-out: SWEET EC50): 3790 nM

CC(C)(C(=O)NC1CC1)c1ccc(-c2cncc(C#N)n2)cc1 [Compound A47]
EC50 (Table A, read-out: SWEET EC50): 320 nM

CC(C)(C(=O)NC1CCC1)c1ccc(-c2cncc(C#N)c2)cc1 [Compound A51]
EC50 (Table A, read-out: SWEET EC50): 410 nM

CC(C)CNC(=O)C(C)(C)c1ccc(-c2coc(C(=O)O)c2)cc1 [Compound A66]
EC50 (Table A, read-out: SWEET EC50): 1370 nM

COc1cccc(-c2ccc(C(C)C(=O)NCC(C)C)cc2)c1 (stereo not shown) [Compound A7]
EC50 (Table A, read-out: SWEET EC50): 5580 nM

CC(C)(C(=O)CCc1ccco1)c1ccc(-c2cncc(C#N)c2)cc1 [Compound A72]
EC50 (Table A, read-out: SWEET EC50): 180 nM

CC(C)(C(=O)NCc1ccoc1)c1ccc(-c2cncc(C#N)n2)cc1 [Compound A54]
EC50 (Table A, read-out: SWEET EC50): 590 nM

CCCNC(=O)C(C)(C)c1ccc(-c2cncc(COC)c2)cc1 [Compound A29]
EC50 (Table A, read-out: SWEET EC50): 2910 nM

CC(C)CNC(=O)C(C)(C)c1ccc(-c2cccnc2)cc1 [Compound A56]
EC50 (Table A, read-out: SWEET EC50): 770 nM

CC(C)(C(=O)NCC1CC1)c1ccc(-c2cncc(C#N)c2)cc1 [Compound A84]
EC50 (Table A, read-out: SWEET EC50): 110 nM

CC(C)NC(=O)C(C)(C)c1ccc(-c2cncc(C#N)c2)cc1 [Compound A22]
EC50 (Table A, read-out: SWEET EC50): 940 nM

CCC(C(=O)NCC(C)C)c1ccc(-c2ccccc2)cc1 (stereo not shown) [Compound A93]
EC50 (Table A, read-out: SWEET EC50): 900 nM

CC(C)CNC(=O)C(C)(C)c1nc(-c2ccccc2)no1 [Compound 41, N-isobutyl-2-methyl-2-(3-phenyl-1,2,4-oxadiazol-5-yl)propanamide]
EC50 [1]: 6530 nM

CC(C)[C@@H](C)NC(=O)C(C)(C)c1ccc(-c2cncnc2)cc1 [Compound 44, (R)-2-methyl-N-(3-methylbutan-2-yl)-2-(4-(pyrimidin-5-yl)phenyl)propanamide]
EC50 [1]: 650 nM

CCc1ccccc1-c1ccc(C(C)(C)C(=O)NCC(C)C)cc1 [Compound A13]
EC50 (Table A, read-out: SWEET EC50): 7000 nM

CC(C)CNC(=O)C(C)(C)c1ccc(-c2ccc3[nH]ccc3c2)cc1 [Compound A10]
EC50 (Table A, read-out: SWEET EC50): 3360 nM

CC(C)(C(=O)NC1CCCCC1)c1ccc(-c2cncnc2)cc1 [Compound A89]
EC50 (Table A, read-out: SWEET EC50): 410 nM

CC(C)CNC(=O)Cc1ccc(-c2ccccc2)c(F)c1 [Compound A8]
EC50 (Table A, read-out: SWEET EC50): 7500 nM

CCC(COC)NC(=O)C(C)(C)c1ccc(-c2cncc(C#N)c2)cc1 (stereo not shown) [Compound A62]
EC50 (Table A, read-out: SWEET EC50): 1220 nM

Cc1ccccc1-c1ccc(C(C)(C)C(=O)NCC(C)C)cc1 [Compound 12, N-isobutyl-2-methyl-2-(2′-methylbiphenyl-4-yl)propanamide]
EC50 [1]: 1900 nM

CC(C)(C(=O)NCC(O)c1ccccc1)c1ccc(-c2cncc(C#N)c2)cc1 (stereo not shown) [Compound A61]
EC50 (Table A, read-out: SWEET EC50): 1170 nM

CC[C@@H](C)NC(=O)C(C)(C)c1ccc(-c2cncc(COC)c2)cc1 [Compound A58]
EC50 (Table A, read-out: SWEET EC50): 1050 nM

CC[C@@H](C)NC(=O)C(C)(C)c1ccc(-c2cncc(C#N)n2)cc1 [Compound A50]
EC50 (Table A, read-out: SWEET EC50): 370 nM

CC[C@H](C)CNC(=O)C(C)(C)c1ccc(-c2cncc(C#N)n2)cc1 [Compound A82]
EC50 (Table A, read-out: SWEET EC50): 30 nM

CC(C)CNC(=O)C(C)(C)c1ccc(-c2ccsc2)cc1 [Compound 7, N-isobutyl-2-methyl-2-(4-(thiophen-3-yl)phenyl)propanamide]
EC50 [1]: 1240 nM

COc1cccc(-c2ccc(C(C)(C)C(=O)NCC(C)C)cc2)c1OC [Compound A18]
EC50 (Table A, read-out: SWEET EC50): 6600 nM

CC(C)CNC(=O)C(C)(C)c1ccc(-c2cccc(O)c2)cc1 [Compound 11, 2-(3′-hydroxybiphenyl-4-yl)-N-isobutyl-2-methylpropanamide]
EC50 [1]: 1900 nM

CC(C)(C(=O)NC[C@@H]1CCCO1)c1ccc(-c2cncc(C#N)c2)cc1 [Compound A27]
EC50 (Table A, read-out: SWEET EC50): 2060 nM

CC(C)CNC(=O)C(C)(C)c1ccc(-c2cocc2C#N)cc1 [Compound A48]
EC50 (Table A, read-out: SWEET EC50): 320 nM

CCC(COC)NC(=O)C(C)(C)c1ccc(-c2ccccc2)c(F)c1 (stereo not shown) [Compound 6, 2-(2-fluorobiphenyl-4-yl)-N-(1-methoxybutan-2-yl)-2-methylpropanamide]
EC50 [1]: 3810 nM

CC(C)CNC(=O)C(C)(C)c1ccc(-c2cc(CO)ccc2C=O)cc1 [Compound A92]
EC50 (Table A, read-out: SWEET EC50): 630 nM

COCC(C)NC(=O)C(C)(C)c1ccc(-c2ccccc2)c(F)c1 (stereo not shown) [Compound A4]
EC50 (Table A, read-out: SWEET EC50): 3190 nM

COc1cccc(-c2ccc(C(C)(C)C(=O)NCC(C)C)cc2)c1 [Compound 19, N-isobutyl-2-(3′-methoxybiphenyl-4-yl)-2-methylpropanamide]
EC50 [1]: 4300 nM

COCOCc1c(C=O)cccc1-c1ccc(C(C)(C)C(=O)NCC(C)C)cc1 [Compound A23]
EC50 (Table A, read-out: SWEET EC50): 1100 nM

CC(C)CNC(=O)C(C)(C)c1ccc(-c2cnco2)cc1 [Compound A35]
EC50 (Table A, read-out: SWEET EC50): 11500 nM

CC(C)(C(=O)NC1CCC1)c1ccc(-c2cncc(C#N)n2)cc1 [Compound A49]
EC50 (Table A, read-out: SWEET EC50): 370 nM

CC(C)CNC(=O)C(NC(=O)OC(C)(C)C)c1ccc(-c2ccccc2)cc1 (stereo not shown) [Compound 24, tert-butyl 1-(biphenyl-4-yl)-2-(isobutylamino)-2-oxoethylcarbamate]
EC50 [1]: 7540 nM

CC(C)NC(=O)C(C)(C)c1ccc(-c2cncc(C#N)n2)cc1 [Compound A55]
EC50 (Table A, read-out: SWEET EC50): 650 nM

CC(C)CNC(=O)C(C)(C)c1ccc(-c2ccoc2)cc1 [Compound 1, 2-(4-(Furan-3-yl)phenyl)-N-isobutyl-2-methylpropanamide]
EC50 [1]: 340 nM

COCc1cccc(-c2ccc(C(C)(C)C(=O)NCC(C)C)nc2)c1 [Compound A30]
EC50 (Table A, read-out: SWEET EC50): 3050 nM
